Experimental data reported in patent publication US10736856B2, “Use of xibornol as active agent in the treatment of viral infections” (priority 2016, dated 2020).
Entries after “also recorded” stand apart in the source; their conditions may differ.

Columns and labels:
Assay in all cases: Xibornol virucidal efficacy test (UNI EN 14476 adapted), residual viral titer by Karber micromethod
Conditions in all cases: for Average viral titre after 15 minutes contact / Logarithmic reduction: 15 minutes contact
Human Coronavirus = format: cell-based, Human Coronavirus (ATCC VR-740), titrated on MRC-5
Procedure: (§1) The experimentation was conducted by using the following strains from ATCC: • VR-5 Human Adenovirus 5; Strain: Adenoid 75, • VR-286 Picornaviridae, Rhinovirus, Human Rhinovirus A, • VR-740 Human Coronavirus.
(§2) The cell lines used for the isolation of the target viruses were: • ATCC CCL-2 HeLa—Cervical Adenocarcinoma—Human (Homo sapiens), briefly ‘HeLa’, for the study of Human Adenovirus 5 and Human Rhinovirus, and • ATCC CCL-171 MRC-5-Lung Fibroblast-Human (Homo Sapiens), briefly ‘MRC-5’ for the study of Human Coronavirus.
(§3) The tests to assess the toxicity of xibornol were performed as per UNI EN 14476 protocol, which refers to the “virucidal activity of chemical disinfectants or antiseptics for tools, surfaces or hands forming a physically stable homogeneous mixture when diluted with hard water or water”, suitably adapted, also considering that xibornol is soluble in alcohol (ethanol) that is already well known to have toxic effects for cell cultures.
(§4) Therefore, it was decided to use preparations in which xibornol was diluted with different solvents, in order also to be able to test both the solution and the suspension condition. After several tests, a reliable method was set up, by using Labrasol®, namely caprylocaproyl polyoxyl-8 glyceride, as solvent and formulating xibornol in solution.
(§5) For each of the 3 viruses, 3 replicates were performed with 10 mL mixtures consisting of: • 1 mL Labrasol® (“clean” tests) or 1 mL of fetal bovine serum (“dirt” tests); • 8 mL xibornol for each dilution (8%, 3%, 0.5%) at the non-toxic concentration for the cell cultures: 10^−3, 10^−2 and 10^−1 respectively, and corresponding to 0.008 g/100 mL, 0.030 g/100 mL and […]. Dilutions made in Labrasol®; • 1 mL of virus with known titer.
(§6) The tests carried out in “dirt” situations, specified by the standard protocol, were intended to create a more “difficult” environment for the performance of the virucidal activity by xibornol, hindered in its activity by the presence of further polluting components, as actually happens in the application environment of the active ingredient, allowing recreating and simulating as closely as possible the conditions of use.
(§7) For tests performed in “dirt” condition, the erythrocytes were not mixed with the bovine fetal serum, as indicated by the European standard, because of the interfering effect they have towards the cell lines used in the tests, which would have led to difficulties in interpreting the results.
(§8) Moreover, for each replicate, a negative control was used, consisting of: • 1 mL virus; • 9 mL Labrasol® (“clean” tests) or 8 mL Labrasol®+1 mL fetal bovine serum (“dirt” tests).
(§9) Contact time: 15 minutes.
(§10) After this interval, the mixtures were analysed to assess the residual viral titer by titration, Karber micromethod.
(§11) The data obtained were analysed with the Excel program for the evaluation of averages and total logarithmic standard deviations.

Human Adenovirus 5 = format: cell-based
Procedure: as §1, §2, §3, §4, §5, §6, §7, §8, §9, §10, §11

Human Rhinovirus = format: cell-based, Human Rhinovirus A (ATCC VR-286), titrated on HeLa
Procedure: as §1, §2, §3, §4, §5, §6, §7, §8, §9, §10, §11

[1] = after 15 minutes of contact, all concentrations tested (0.008, 0.030, 0.05 g/100 mL)
[2] = extrapolated from trend curve to xibornol 3 g per 100 mL of solution
[3] = “clean” test, working concentration 0.008 g/100 mL (8% solution, dilution 10^−3)
[4] = “clean” test, working concentration 0.03 g/100 mL (3% solution, dilution 10^−2)
[5] = “clean” test, working concentration 0.05 g/100 mL (0.5% solution, dilution 10^−1)
[6] = “dirt” test (fetal bovine serum), working concentration 0.008 g/100 mL (8% solution, dilution 10^−3)
[7] = “dirt” test (fetal bovine serum), working concentration 0.03 g/100 mL (3% solution, dilution 10^−2)
[8] = “dirt” test (fetal bovine serum), working concentration 0.05 g/100 mL (0.5% solution, dilution 10^−1)

Cc1cc(O)c(C2CC3CCC2(C)C3(C)C)cc1C (centres unmarked) [xibornol, 4,5-dimethyl-2-[1,7,7-trimethylbicyclo[2.2.1]heptan-2-yl]phenol]
killing extent (reduction of viral load) (Human Coronavirus; [1]): greater than 2 orders of magnitude | killing peak (reduction of viral load) (Human Coronavirus; after 15 minutes of contact, highest value reached): 3.8 orders of magnitude | final average titer after treatment, extrapolated (Human Coronavirus; [2]): very close to zero | reduction of the viral load titer (expressed as logarithm), extrapolated (Human Coronavirus; [2]): at least of two orders of magnitude; also recorded: almost total reduction | Average viral titre after 15 minutes contact (Human Coronavirus; [3]): 1.8 ± 0.7 Log DCP50/mL | Logarithmic reduction (Human Coronavirus; [3]): 3.4 | Average viral titre after 15 minutes contact (Human Coronavirus; [4]): 1.4 ± 0 Log DCP50/mL | Logarithmic reduction (Human Coronavirus; [4]): 3.8 | Average viral titre after 15 minutes contact (Human Coronavirus; [5]): 1.6 ± 0.3 Log DCP50/mL | Logarithmic reduction (Human Coronavirus; [5]): 3.6 | Average viral titre after 15 minutes contact (Human Coronavirus; [6]): 1.7 ± 0.7 Log DCP50/mL | Logarithmic reduction (Human Coronavirus; [6]): 2.3 | Average viral titre after 15 minutes contact (Human Coronavirus; [7]): 1.5 ± 0.6 Log DCP50/mL | Logarithmic reduction (Human Coronavirus; [7]): 2.6 | Average viral titre after 15 minutes contact (Human Coronavirus; [8]): 1.6 ± 0.4 Log DCP50/mL | Logarithmic reduction (Human Coronavirus; [8]): 2.5 | reduction of the viral titer, average (Human Coronavirus; “dirt” tests): more than two orders of magnitude | killing extent (reduction of viral load) (Human Adenovirus 5; [1]): greater than 2 orders of magnitude | final average titer after treatment, extrapolated (Human Adenovirus 5; [2]): very close to zero | reduction of the viral load titer (expressed as logarithm), extrapolated (Human Adenovirus 5; [2]): at least of two orders of magnitude; also recorded: almost total reduction | Average viral titre after 15 minutes contact (Human Adenovirus 5; [3]): 2 ± 0.8 Log DCP50/mL | Logarithmic reduction (Human Adenovirus 5; [3]): 2.4 | Average viral titre after 15 minutes contact (Human Adenovirus 5; [4]): 1.3 ± 1 Log DCP50/mL | Logarithmic reduction (Human Adenovirus 5; [4]): 3.1 | Average viral titre after 15 minutes contact (Human Adenovirus 5; [5]): 1.1 ± 0.1 Log DCP50/mL | Logarithmic reduction (Human Adenovirus 5; [5]): 3.3 | Average viral titre after 15 minutes contact (Human Adenovirus 5; [6]): 1.1 ± 0.6 Log DCP50/mL | Logarithmic reduction (Human Adenovirus 5; [6]): 2 | Average viral titre after 15 minutes contact (Human Adenovirus 5; [7]): 1.2 ± 0.6 Log DCP50/mL | Logarithmic reduction (Human Adenovirus 5; [7]): 1.9 | Average viral titre after 15 minutes contact (Human Adenovirus 5; [8]): 0.8 ± 0.5 Log DCP50/mL | Logarithmic reduction (Human Adenovirus 5; [8]): 2.3 | reduction of the viral titer, average (Human Adenovirus 5; “dirt” tests): more than two orders of magnitude | killing extent (reduction of viral load) (Human Rhinovirus; [1]): greater than 2 orders of magnitude | final average titer after treatment, extrapolated (Human Rhinovirus; [2]): very close to zero | reduction of the viral load titer (expressed as logarithm), extrapolated (Human Rhinovirus; [2]): at least of two orders of magnitude; also recorded: almost total reduction | Average viral titre after 15 minutes contact (Human Rhinovirus; [3]): 2 ± 0.1 Log DCP50/mL | Logarithmic reduction (Human Rhinovirus; [3]): 2.2 | Average viral titre after 15 minutes contact (Human Rhinovirus; [4]): 1.3 ± 0.5 Log DCP50/mL | Logarithmic reduction (Human Rhinovirus; [4]): 2.9 | Average viral titre after 15 minutes contact (Human Rhinovirus; [5]): 1.2 ± 0.4 Log DCP50/mL | Logarithmic reduction (Human Rhinovirus; [5]): 3 | Average viral titre after 15 minutes contact (Human Rhinovirus; [6]): 1 ± 0.1 Log DCP50/mL | Logarithmic reduction (Human Rhinovirus; [6]): 2.8 | Average viral titre after 15 minutes contact (Human Rhinovirus; [7]): 0.7 ± 0.1 Log DCP50/mL | Logarithmic reduction (Human Rhinovirus; [7]): 3.1 | Average viral titre after 15 minutes contact (Human Rhinovirus; [8]): 0.8 ± 0.1 Log DCP50/mL | Logarithmic reduction (Human Rhinovirus; [8]): 3 | reduction of the viral titer, average (Human Rhinovirus; “dirt” tests): more than two orders of magnitude | reduction of the viral titer, highest reached (Human Rhinovirus; “dirt” tests): ≥ 3 orders of magnitude
